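48-hour exposure; five concentrations; linearly interpolated endpoints. The concentration for 50% growth inhibition is given as GI50. The concentration for full growth arrest is given as TGI.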
What was measured:
Test in all cases: NCI-60 cell line screen, 48 h
[1] = tested on: 786-0 renal
[2] = tested on: A498 renal
[3] = tested on: A549 NSCLC
[4] = tested on: ACHN renal
[5] = tested on: BT-549 breast
[6] = tested on: CAKI-1 renal
[7] = tested on: CCRF-CEM leukemia
[8] = tested on: COLO 205 colon
[9] = tested on: DU-145 prostate
[10] = tested on: EKVX NSCLC
[11] = tested on: HCC-2998 colon
[12] = tested on: HCT-116 colon
[13] = tested on: HCT-15 colon
[14] = tested on: HL-60(TB) leukemia
[15] = tested on: HOP-62 NSCLC
[16] = tested on: HOP-92 NSCLC
[17] = tested on: HS 578T breast
[18] = tested on: HT29 colon
[19] = tested on: IGROV1 ovarian
[20] = tested on: K-562 leukemia
[21] = tested on: KM12 colon
[22] = tested on: LOX IMVI melanoma
[23] = tested on: M14 melanoma
[24] = tested on: MALME-3M melanoma
[25] = tested on: MCF7 breast
[26] = tested on: MDA-MB-231 breast
[27] = tested on: MDA-MB-435
[28] = tested on: MDA-MB-468 breast
[29] = tested on: MOLT-4 leukemia
[30] = tested on: NCI-H226 lung
[31] = tested on: NCI-H23 lung
[32] = tested on: NCI-H460 lung
[33] = tested on: NCI-H522 lung
[34] = tested on: NCI/ADR-RES ovarian
[35] = tested on: OVCAR-3 ovarian
[36] = tested on: OVCAR-4 ovarian
[37] = tested on: OVCAR-5 ovarian
[38] = tested on: OVCAR-8 ovarian
[39] = tested on: PC-3 prostate
[40] = tested on: RPMI-8226 leukemia
[41] = tested on: RXF 393 renal
[42] = tested on: SF-268 CNS
[43] = tested on: SF-295 CNS
[44] = tested on: SF-539 CNS
[45] = tested on: SK-MEL-2 melanoma
[46] = tested on: SK-MEL-28 melanoma
[47] = tested on: SK-MEL-5 melanoma
[48] = tested on: SK-OV-3 ovarian
[49] = tested on: SN12C renal
[50] = tested on: SNB-19 CNS
[51] = tested on: SNB-75 CNS
[52] = tested on: SR leukemia
[53] = tested on: SW-620 colon
[54] = tested on: T-47D breast
[55] = tested on: TK-10 renal
[56] = tested on: U251 CNS
[57] = tested on: UACC-257 melanoma
[58] = tested on: UACC-62 melanoma
[59] = tested on: UO-31 renal

`O=C(Nc1ccc(OCc2ccc(F)cc2)cc1)Nc1ccc(Cl)c(C(F)(F)F)c1` showed a GI50 [1] of 3.12 µM, a TGI [1] of 11.9 µM and a GI50 [2] of 2.16 µM. The TGI [2] was 6.69 µM, the GI50 [3] was 2.83 µM and the TGI [3] was 12.1 µM. It also gave a GI50 [4] of 3.21 µM, a TGI [4] of 11 µM and a GI50 [5] of 2.08 µM. For the same compound, the TGI [5] was 6.1 µM, the GI50 [6] was 2.56 µM and the TGI [6] was 9.1 µM. It also gave a GI50 [7] of 3.01 µM, a TGI [7] of 11.3 µM and a GI50 [8] of 1.82 µM. For the same compound, the TGI [8] was 3.37 µM, the GI50 [9] was 3.96 µM and the TGI [9] was 14.3 µM. It also gave a GI50 [10] of 2.56 µM, a TGI [10] of 8.33 µM and a GI50 [11] of 3.08 µM. It also gave a TGI [11] of 11.2 µM, a GI50 [12] of 3.11 µM and a TGI [12] of 10.4 µM. The GI50 [13] was 2.75 µM, the TGI [13] was 11 µM and the GI50 [14] was 2.7 µM. For the same compound, the TGI [14] was 7.29 µM, the GI50 [15] was 3.03 µM and the TGI [15] was 11.4 µM. The GI50 [16] was 1.88 µM, the TGI [16] was 5.78 µM and the GI50 [17] was 2.88 µM. It also gave a TGI [17] of 8.28 µM, a GI50 [18] of 3.33 µM and a TGI [18] of 14.5 µM. For the same compound, the GI50 [19] was 4.45 µM, the TGI [19] was 16.2 µM and the GI50 [20] was 3.02 µM. The TGI [20] was > 100 µM, the GI50 [21] was 2.86 µM and the TGI [21] was 8.39 µM. For the same compound, the GI50 [22] was 2.79 µM, the TGI [22] was 9.64 µM and the GI50 [23] was 2.79 µM. For the same compound, the TGI [23] was 10.4 µM, the GI50 [24] was 2.07 µM and the TGI [24] was 5.78 µM. For the same compound, the GI50 [25] was 2.25 µM, the TGI [25] was 8.25 µM and the GI50 [26] was 2.46 µM. For the same compound, the TGI [26] was 5.84 µM, the GI50 [27] was 2.15 µM and the TGI [27] was 4.9 µM. It also gave a GI50 [28] of 1.85 µM, a TGI [28] of 4.71 µM and a GI50 [29] of 2.74 µM. The TGI [29] was 13.8 µM, the GI50 [30] was 2.46 µM and the TGI [30] was 7.87 µM. It also gave a GI50 [31] of 2.38 µM, a TGI [31] of 7.17 µM and a GI50 [32] of 2.51 µM. It also gave a TGI [32] of 6.68 µM, a GI50 [33] of 3.03 µM and a TGI [33] of 12.3 µM. The GI50 [34] was 2.4 µM, the TGI [34] was 8.36 µM and the GI50 [35] was 3.11 µM. It also gave a TGI [35] of 10.6 µM, a GI50 [36] of 2.89 µM and a TGI [36] of 10.3 µM. The GI50 [37] was 3.24 µM, the TGI [37] was 12.2 µM and the GI50 [38] was 3.52 µM. For the same compound, the TGI [38] was 13.9 µM, the GI50 [39] was 2.21 µM and the TGI [39] was 10.7 µM. The GI50 [40] was 2.77 µM, the TGI [40] was 21.8 µM and the GI50 [41] was 2.57 µM. For the same compound, the TGI [41] was 7.32 µM, the GI50 [42] was 3.37 µM and the TGI [42] was 12.1 µM. For the same compound, the GI50 [43] was 1.89 µM, the TGI [43] was 4.82 µM and the GI50 [44] was 3.13 µM. For the same compound, the TGI [44] was 10.1 µM, the GI50 [45] was 2.51 µM and the TGI [45] was 7.15 µM. The GI50 [46] was 3.62 µM, the TGI [46] was 12.7 µM and the GI50 [47] was 1.68 µM. For the same compound, the TGI [47] was 3.07 µM, the GI50 [48] was 2.28 µM and the TGI [48] was 7.28 µM. It also gave a GI50 [49] of 2.88 µM, a TGI [49] of 10.3 µM and a GI50 [50] of 3.22 µM. For the same compound, the TGI [50] was 11.9 µM, the GI50 [51] was 1.33 µM and the TGI [51] was 6.2 µM. For the same compound, the GI50 [52] was 2.85 µM, the TGI [52] was 12.6 µM and the GI50 [53] was 3.31 µM. It also gave a TGI [53] of 11.6 µM, a GI50 [54] of 2.46 µM and a TGI [54] of 10.1 µM. It also gave a GI50 [55] of 3.83 µM, a TGI [55] of 14.4 µM and a GI50 [56] of 2.74 µM. It also gave a TGI [56] of 10.8 µM, a GI50 [57] of 2.2 µM and a TGI [57] of 6.68 µM. The GI50 [58] was 2.25 µM, the TGI [58] was 7.75 µM and the GI50 [59] was 2.37 µM. It also gave a TGI [59] of 10.1 µM.
